Among the test systems are RXF 393; UACC-257; HT-29; HCT-116; CCRF-CEM; COLO 205; HCT-15; SK-MEL-5; Malme-3M; 786-0; EKVX; NCI-H460; SK-MEL-2; TK-10; SNB-19; OVCAR-5; RPMI-8226; OVCAR-8.
Common to all, as to test: NCI anticancer screen, dose series, 48 h

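All cell lines were grown in 96-well plates and treated with compound for 48 hours. At the GI50, growth is halved.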 The source made the active and inactive calls. Cut-off read from the data, not from the text of the source: active = GI50 up to about 1.1 µM and inactive = higher. Bounds are passed on as bounds.

12 compounds from ChEMBL document CHEMBL1201862, “PubChem BioAssay data set” (2004) can be followed below.

For `CCCCCCc1cc(C(=O)Nc2cccc(C(F)(F)F)c2)nc(N)n1`, the GI50 with RXF 393, in the assay on UACC-257, with HT-29, with HCT-116, with CCRF-CEM and in the assay on COLO 205 was > 100 µM (inactive) throughout. The GI50 in the assay with HCT-15 is more than 100 µM; in the assay with SK-MEL-5, > 100 µM (inactive); with Malme-3M, > 100 µM (inactive); in the assay on 786-0, > 100 µM (inactive); in the assay with EKVX, > 100 µM (inactive); with NCI-H460, > 100 µM (inactive). Also, the GI50 with SK-MEL-2, in the assay with TK-10, with SNB-19, in the assay with OVCAR-5 and in the assay on RPMI-8226 was > 100 µM (inactive) each time.
As for `C/C(=N\O)c1sc(-n2nc(-c3ccccc3)cc2-c2ccccc2)nc1C`, the GI50 is > 10 µM (inactive) in the assay on RXF 393; 13.6 µM (inactive) in the assay with UACC-257; 12 µM (inactive) in the assay with OVCAR-8; 13 µM (inactive) in the assay with HT-29; 12.6 µM (inactive) in the assay with HCT-116; 12.3 µM (inactive) in the assay on CCRF-CEM. Also, the GI50 in the assay with COLO 205 was > 10 µM (inactive); with HCT-15, 13.9 µM; with SK-MEL-5 it was 12 µM (inactive); with Malme-3M, 16.9 µM (inactive); in the assay on 786-0, 11.2 µM (inactive); in the assay with EKVX, 6.35 µM (inactive). Also, the GI50 was 15.6 µM (inactive) with NCI-H460; 28.3 µM (inactive) with SK-MEL-2; > 10 µM (inactive) in the assay on TK-10; 12.2 µM (inactive) in the assay on SNB-19; > 10 µM (inactive) in the assay with OVCAR-5; 12.2 µM (inactive) with RPMI-8226.
With `Cc1nc2c(ccc3ncccc32)[nH]1`, the GI50 in the assay on RXF 393, in the assay on UACC-257, with OVCAR-8, with HT-29, in the assay on CCRF-CEM and in the assay on COLO 205 was > 100 µM (inactive) in each case. The GI50 is more than 100 µM with HCT-15; > 100 µM (inactive) in the assay with SK-MEL-5; > 100 µM (inactive) with Malme-3M; > 100 µM (inactive) in the assay with 786-0; > 100 µM (inactive) in the assay on EKVX; > 100 µM (inactive) in the assay with NCI-H460. In addition, the GI50 in the assay on SK-MEL-2, in the assay with TK-10, in the assay on SNB-19, in the assay on OVCAR-5 and with RPMI-8226 was > 100 µM (inactive) throughout.
`CCOC(=O)C(=O)Nc1ccc(Cl)c(C(F)(F)F)c1`: the GI50 in the assay with RXF 393, in the assay with UACC-257, in the assay on OVCAR-8, with HT-29, with HCT-116 and with CCRF-CEM was > 100 µM (inactive) each time. Moreover, the GI50 in the assay on COLO 205 is > 100 µM (inactive); in the assay on HCT-15, more than 100 µM; in the assay on SK-MEL-5, > 100 µM (inactive); in the assay with Malme-3M it was > 100 µM (inactive); in the assay with 786-0 it was > 100 µM (inactive); in the assay with EKVX, > 100 µM (inactive). The GI50 with SK-MEL-2, in the assay on TK-10, with SNB-19, in the assay on OVCAR-5 and with RPMI-8226 was > 100 µM (inactive) throughout.
With `COC(=O)C1=C(c2ccc3c(c2)OCO3)OC(c2ccc3c(c2)OCO3)C1` (stereo not drawn), the GI50 in the assay with RXF 393 is 68.5 µM (inactive); in the assay on UACC-257, 69.7 µM (inactive); in the assay on OVCAR-8, > 100 µM (inactive); in the assay with HT-29, > 100 µM (inactive); with HCT-116, > 100 µM (inactive); in the assay with CCRF-CEM it was > 100 µM (inactive). In addition, the GI50 in the assay with COLO 205 is 66.1 µM (inactive); in the assay with HCT-15, more than 100 µM; in the assay on SK-MEL-5, 68.5 µM (inactive); with Malme-3M, > 100 µM (inactive); with 786-0, > 100 µM (inactive); with EKVX, > 100 µM (inactive). In addition, the GI50 in the assay with NCI-H460, in the assay with SK-MEL-2, with TK-10, in the assay with OVCAR-5 and with RPMI-8226 was > 100 µM (inactive) throughout.
`COC/C=C\COC`: the GI50 with RXF 393, in the assay on UACC-257, with OVCAR-8, in the assay on HT-29, in the assay on HCT-116 and in the assay on CCRF-CEM was > 100 µM (inactive) each time. The GI50 in the assay with COLO 205 was > 100 µM (inactive); in the assay with HCT-15 it was more than 100 µM; in the assay on SK-MEL-5 it was > 100 µM (inactive); in the assay with Malme-3M it was > 100 µM (inactive); in the assay on 786-0, > 100 µM (inactive); in the assay with EKVX it was > 100 µM (inactive). The GI50 in the assay with NCI-H460, in the assay on SK-MEL-2, with TK-10, in the assay with SNB-19, in the assay with OVCAR-5 and with RPMI-8226 was > 100 µM (inactive) throughout.
For `CCCCCCCCCc1cc(=O)c2ccc(O)cc2o1`, the GI50 with RXF 393 is 31.4 µM (inactive); in the assay on UACC-257 it was 65.3 µM (inactive); in the assay with OVCAR-8 it was 27.1 µM (inactive); in the assay with HT-29 it was > 100 µM (inactive); with HCT-116, 38.5 µM (inactive); with CCRF-CEM, 16.9 µM (inactive). Moreover, the GI50 in the assay with COLO 205 is 51.4 µM (inactive); with SK-MEL-5 it was 43.5 µM (inactive); with Malme-3M, > 100 µM (inactive); in the assay on 786-0, 39.8 µM (inactive); in the assay with EKVX it was > 100 µM (inactive); in the assay with NCI-H460, 57.8 µM (inactive). The GI50 in the assay on SK-MEL-2 was 10.3 µM (inactive); in the assay on TK-10 it was 30 µM (inactive); with SNB-19 it was 44.6 µM (inactive); in the assay with OVCAR-5 it was > 100 µM (inactive); in the assay on RPMI-8226 it was 17.9 µM (inactive).
Turning to `CC(C)N1C(C)[C@@H](c2ccccc2)O[P@@]1(=O)CC1=CCCCC1` (stereo partly drawn), the GI50 in the assay on RXF 393 is 68.7 µM (inactive); in the assay with UACC-257, > 100 µM (inactive); in the assay on OVCAR-8, > 100 µM (inactive); in the assay with HT-29, > 100 µM (inactive); with HCT-116 it was 90.2 µM (inactive); with CCRF-CEM, 48.5 µM (inactive). For the same compound, the GI50 with COLO 205 was > 100 µM (inactive); with HCT-15, more than 100 µM; in the assay on SK-MEL-5, 55.6 µM (inactive); in the assay on Malme-3M, > 100 µM (inactive); in the assay on 786-0 it was > 100 µM (inactive); in the assay with EKVX, > 100 µM (inactive). For the same compound, the GI50 in the assay on NCI-H460 was > 100 µM (inactive); in the assay on SK-MEL-2 it was > 100 µM (inactive); in the assay on TK-10 it was > 100 µM (inactive); in the assay on OVCAR-5, > 100 µM (inactive); with RPMI-8226, 49.1 µM (inactive).
Take `C=C[C@]1(C)CCC2=C(CCC3C2(C)CCC[C@@]3(C)COC(C)=O)C1` (stereo partly drawn): the GI50 in the assay with RXF 393 was 22 µM (inactive); in the assay with UACC-257 it was 25.2 µM (inactive); with OVCAR-8, 19.1 µM (inactive); with HT-29, 18.7 µM (inactive); in the assay with HCT-116, 17.2 µM (inactive); in the assay on CCRF-CEM, 17.6 µM (inactive). For the same compound, the GI50 with COLO 205 was 16.3 µM (inactive); in the assay on HCT-15, 16.8 µM; in the assay on SK-MEL-5, 16.9 µM (inactive); in the assay on Malme-3M, 25 µM (inactive); in the assay with 786-0, 17.3 µM (inactive); with EKVX, 19.5 µM (inactive). The GI50 was 17.6 µM (inactive) in the assay on NCI-H460; 14.6 µM (inactive) in the assay on SK-MEL-2; 25.8 µM (inactive) with TK-10; 17.6 µM (inactive) with SNB-19; 18.2 µM (inactive) in the assay on OVCAR-5; 17.1 µM (inactive) with RPMI-8226.
`COc1cc(C2c3cc4c(cc3[C@@H](OCCN(C)C)C3COC(=O)[C@H]23)OCO4)cc(OC)c1O` (stereo partly drawn): the GI50 with RXF 393 is 0.396 µM (active); in the assay with UACC-257, 1.68 µM (inactive); in the assay with OVCAR-8 it was 0.583 µM (active); with HT-29, 0.902 µM (active); in the assay on HCT-116, 1.04 µM (active); in the assay on CCRF-CEM, 0.0419 µM (active). Besides, the GI50 with COLO 205 is 2.85 µM (inactive); with HCT-15, 0.971 µM; with SK-MEL-5, 0.183 µM (active); in the assay with Malme-3M, 0.388 µM (active); in the assay on 786-0 it was 0.139 µM (active); in the assay on EKVX it was 1.65 µM (inactive). Moreover, the GI50 with NCI-H460 was 0.0127 µM (active); with SK-MEL-2, 1.29 µM (inactive); in the assay with TK-10 it was 1.58 µM (inactive); in the assay with SNB-19, 0.207 µM (active); in the assay on OVCAR-5, 0.771 µM (active); in the assay with RPMI-8226, 0.0472 µM (active).
Consider `COc1c(Cl)c2c(c(OC)c1OC)-c1ccc(OC)c(=O)c(Cl)c1C(NC(C)=O)CC2` (stereo not drawn), for which the GI50 in the assay on RXF 393 was 0.0382 µM (active); in the assay on UACC-257 it was 0.14 µM (active); in the assay on OVCAR-8, 0.353 µM (active); in the assay with HT-29 it was 0.156 µM (active); with HCT-116, 0.125 µM (active); in the assay with CCRF-CEM it was 0.305 µM (active). Besides, the GI50 is 0.194 µM (active) in the assay on COLO 205; 0.356 µM in the assay with HCT-15; 0.141 µM (active) in the assay with SK-MEL-5; 0.155 µM (active) with Malme-3M; 0.308 µM (active) in the assay on 786-0; 7.35 µM (inactive) in the assay with EKVX. Besides, the GI50 was 0.134 µM (active) in the assay on NCI-H460; 0.284 µM (active) in the assay on SK-MEL-2; 0.69 µM (active) in the assay on TK-10; 1.43 µM (inactive) in the assay on SNB-19; 0.337 µM (active) in the assay with RPMI-8226.
Take `CC1CC2(CC[C@@H]1O)OCCO2` (stereo partly drawn): the GI50 with RXF 393, with UACC-257, in the assay on OVCAR-8, in the assay on HT-29, with HCT-116 and with CCRF-CEM was > 100 µM (inactive) in each case. Besides, the GI50 with COLO 205 was > 100 µM (inactive); with HCT-15, more than 100 µM; in the assay with SK-MEL-5 it was > 100 µM (inactive); in the assay with Malme-3M it was > 100 µM (inactive); with 786-0, > 100 µM (inactive); in the assay with EKVX, > 100 µM (inactive). Besides, the GI50 in the assay with NCI-H460, in the assay on SK-MEL-2, with TK-10, in the assay with SNB-19 and in the assay with RPMI-8226 was > 100 µM (inactive) each time.
